{"source": "patent US11897918B2", "about": "“Compositions and methods to increase production” (priority 2014, dated 2024)", "key": {"[1]": {"test_system": "virus-infected host cell culture", "type": "cell-based, influenza", "conditions": "versus control without compound"}, "[2]": {"test_system": "H3N2 strain IVR-165", "type": "cell-based, influenza H3N2", "conditions": "concentrations as low as 0.05 or even 0.01 μM"}, "[3]": {"test_system": "H3N2 strain", "assay": "Additional SAR studies, 10 ml viral cultures", "type": "cell-based, influenza H3N2", "conditions": "0.05 uM", "method": "Additional SAR studies were carried out to further identify candidate compounds to increase yields. 165 analogs tested at 0.05 uM in 10 ml viral cultures with a H3N2 strain. BYF589 enhanced yield over no-compound (DMSO) control by ˜2 fold. 14 of the 165 screened were as good as or better in enhancing HA yields than BYF589 at the concentration tested."}, "[4]": {"test_system": "influenza in MDCK 33016PF cells", "type": "cell-based"}, "[5]": {"test_system": "HEK293 Freestyle cells", "assay": "Recombinant protein expression in HEK293 Freestyle cells", "type": "cell-based", "conditions": "70 nM; proteins with a yield of about ≤4 mg/L", "method": "To further evaluate general utility of the compounds identified in the HA yield studies, one of the lead compounds, BYF589, was tested on recombinant protein expression using heterologous cells. In particular, proteins that had been previously found to be difficult to express in HEK293 cells were included, which are referred to as “low yielders.” In a typical optimized system, low yielders are defined as having a yield of 5 mg/L or less. About 20 constructs of target proteins with typical yields of between 2-10 mg/L were selected for the experiments. They are secreted mammalian proteins, which are truncated versions of full length counterparts. Each construct (in a variant of the pRS5a vector) contained at least one tag (e.g., at least a C-terminal FlagHis tag—in addition, many are fused N- or C-terminally to mouse IgG1 Fc). Roughly equal numbers of each tag type were selected to reduce bias.\nAll targets with yields <1 mg/L or >10 mg/L were removed. Next, targets were sorted by tag type. Finally, if it looked like a particular molecular weight range was heavily represented, a few “duplicates” were culled. Then, to select samples, first 6-7 from each tag type were included without additional selection criteria. Resulting target list is reproduced below.\nThe BYF589 compound was dissolved in DMSO to finally provide a 70 μM working stock (1000×). […]"}, "[6]": {"conditions": "0 and 60 hr, mass spec"}, "[7]": {"test_system": "MDCK 33016PF cells", "conditions": "24 hours; BYF589 1 μM, MEV 100 μM, FTI 0.5 μM, ZA 1 μM, GTI 0.5 μM"}, "[8]": {"test_system": "MDCK cells", "assay": "Cell viability, VI-CELL trypan blue exclusion", "type": "cell-based", "conditions": "monitored up to 60 hrs", "method": "Cell viability assays were performed using MDCK cells treated with 1 uM sulphonamide or DMSO control. Cell viability was monitored over time up to 60 hrs using a VI-CELL machine (Beckman Coulter)(cell viability measured based on trypan blue exclusion). The sulphonamide analog used herein is not a marketed drug, therefore toxicity was conducted to identify cell viability over the course of incubation at the highest tested concentration of 10 μM and 60 hours of contact. […] At least 91% viability is detected in cells treated with sulphonamide."}, "[9]": {"test_system": "IP10 and IFNB1", "type": "cell-based"}, "[10]": {"test_system": "A/Victoria/361/2011 (IVR-165) (high-expressing)", "assay": "ambr15 mini-bioreactor and shake flask comparison, A strain", "type": "cell-based, influenza A H3N2", "conditions": "CDM and DM134 media, shake flasks and 15 ml bioreactors"}}}
{"molecule": "O=C(O)C[C@H](O)C[C@H](O)/C=C/c1c(C2CC2)nc2ccccc2c1-c1ccc(F)cc1", "note": "[Compound G, (3R, 5S, 6E)-7-[2-cyclopropyl-4-(4-fluorophenyl)-quinolin-3-yl)-3,5-dihydroxyhept-6-enoic acid]", "values": [{"measurement": "increase in HA yield at 24 hours, compound added at T=2, 4", "setting": "[1]", "result": "no significant enhancement in HA yield"}, {"measurement": "increase in HA yield at 24 hours, compound added at T=6", "setting": "[1]", "result": "no significant enhancement in HA yield"}, {"measurement": "increase in HA yield at 24 hours, compound added at time of infection (T=0)", "setting": "[1]", "result": "approximately 4 fold"}, {"measurement": "increase in HA yield", "setting": "[2]", "result": 3, "unit": "fold"}, {"measurement": "yield enhancement over no-compound (DMSO) control", "setting": "[3]", "result": "~2", "unit": "fold"}, {"measurement": "HA yield enhancement in multiple strains and subtypes of influenza", "setting": "[4]", "result": "at least 2 fold"}, {"measurement": "increase in recombinant protein yield", "setting": "[5]", "result": "≥ 1.5", "unit": "fold"}, {"measurement": "loss of compound in media or media+MDCK cells", "setting": "[6]", "result": "No loss of compounds was observed"}, {"measurement": "effect on cell viability", "setting": "[7]", "result": "no negative effect on cell viability"}, {"measurement": "impact on cell viability", "setting": "[8]", "result": "Neither sulphonamide nor pitavastatin had a negative impact on cell viability"}, {"measurement": "delay time of gene induction (measured at peak)", "setting": "[9]; both genes, versus absence of compound", "result": "at least two hours"}, {"measurement": "induction of IFNb and IP10", "setting": "[9]; virus-infected MDCK cells, preliminary qRT-PCR data", "result": "delayed/suppressed induction"}, {"measurement": "HA yield enhancement, high-expressing A strain", "setting": "[10]", "result": "but not a high-expressing H3N2 strain"}]}
